# In patent publication US20120283175A1, “ANTIBACTERIAL COMPOSITIONS” (Achaogen, Inc., priority 2009, published 2012):
# Legend:
# [1] = test system: envA1 (D22) E. coli; experiment: MIC by broth microdilution, isogenic envA1 mutant strain; assay type: cell-based
# [2] = test system: Klebsiella pneumoniae; experiment: Checkerboard synergy assay with LpxCi-4; assay type: cell-based; settings: combination with LpxCi-4
# [3] = test system: Escherichia coli; experiment: Checkerboard synergy assay with LpxCi-4; assay type: cell-based; settings: combination with LpxCi-4
# [4] = test system: Yersinia enterocolitica; experiment: Checkerboard synergy assay with LpxCi-4; assay type: cell-based; settings: combination with LpxCi-4
# [5] = test system: E. coli ATCC25922; experiment: MIC by broth microdilution, wild type strain ATCC25922; assay type: cell-based
# [6] = test system: K. pneumo. (ATCC43816); experiment: Neutropenic thigh in vivo efficacy model (mice); design: species or system Klebsiella pneumoniae
smiles,measurement,setting,value
"CN[C@H](CC(C)C)C(=O)N[C@H]1C(=O)N[C@@H](CC(N)=O)C(=O)N[C@H]2C(=O)N[C@H]3C(=O)N[C@H](C(=O)N[C@H](C(=O)O)c4cc(O)cc(O)c4-c4cc3ccc4O)[C@H](O)c3ccc(c(Cl)c3)Oc3cc2cc(c3O[C@@H]2O[C@H](CO)[C@@H](O)[C@H](O)[C@H]2O[C@H]2C[C@](C)(N)[C@H](O)[C@H](C)O2)Oc2ccc(cc2Cl)[C@H]1O [Vancomycin, vancomycin]",MIC,[1]; Strain envA1 (D21),32 µg/mL
same,Fold decrease in MIC (envA+/envA1),[1]; envA+ vs envA1 E. coli,≧8
same,FICI index,[2],≦0.18
same,FICI index,[3],≦0.28
same,FICI index,[4],≦0.31
same,MIC,[5],> 256 µg/mL
same,in vivo synergy with multiple LpxC inhibitors,"[6]; K. pneumo. (ATCC43816), summary",surprising in vivo synergy
same,"reduction in CFU, single agent","[6]; vancomycin alone at 440 mg/kg/day, ATCC43816",no significant reduction in CFU
